Results on 10 molecules are retold here after patent publication US11459337B2, “Isothiazolo[5,4-D]pyrimidine compound as IRAK4 inhibitor” (priority 2018, dated 2022).

Structures are written as SMILES. Where two headings read alike, the source gives them in different places.

The nature of data set [1]: In vitro metabolic stability in liver microsome, human. Format: in vitro ADME. The conditions noted are these: Human liver microsomes, 1 μM compound, 0.5 mg/mL protein. As to the method: (§1) Metabolic Stability in Liver Microsome The test compounds at 1 μM were co-incubated with liver microsomes having a protein concentration of 0.5 mg/mL under the action of a reductive coenzyme II regeneration system in a 37° C. water bath. • 1) Positive controls included: testosterone (3A4 substrate), propylamine propiophenone (2D6 substrate), and diclofenac (2C9 substrate). The positive controls were incubated in the same condition as the test compounds. • 2) The reaction was stopped using a stop reagent containing the internal standard at time points of 0, 5, 10, 20, 30 and 60 minutes. […] CLint^mic: intrinsic microsomal clearance;
(In general: Liver microsomes are a subcellular fraction often used to study metabolism.)

Data set [2] is described as follows: In vitro metabolic stability in liver microsome, rat. Format: in vitro ADME. The conditions noted are these: Rat liver microsomes, 1 μM compound, 0.5 mg/mL protein. As to the method: as §1
Data set [3] in a line: In vitro metabolic stability in liver microsome, dog. Format: in vitro ADME. The note with it: Dog liver microsomes, 1 μM compound, 0.5 mg/mL protein. As to the method: as §1
Data set [4] in a line: In vitro metabolic stability in liver microsome, mouse. Format: in vitro ADME. The note with it: Mouse liver microsomes, 1 μM compound, 0.5 mg/mL protein. The method, then: as §1
Data set [5] in a line: In vitro metabolic stability in liver microsome, monkey. Format: in vitro ADME. The note with it: Monkey liver microsomes, 1 μM compound, 0.5 mg/mL protein. The method, then: as §1
In data set [6] the target is human IRAK4 (Homo sapiens (Human), UniProt Q9NWZ3). In words: 33P-labeled kinase activity assay (Reaction Biology Corp), in vitro enzymatic activity. The conditions noted are these: 20 μM ATP, 3 nM kinase, MBP substrate. The data set is classed as biochemical. The method, then:
The inhibitory activity of the test compounds against human IRAK4 was evaluated by measuring IC50 values in a ^33P-labeled kinase activity assay (Reaction Biology Corp). Buffer conditions: 20 mM Hepes (pH 7.5), 10 mM MgCl2, 1 mM EGTA, 0.02% Brij35, 0.02 mg/mL BSA, 0.1 mM Na3VO4, 2 mM DTT, 1% DMSO. Procedures: The test compound was dissolved in DMSO at room temperature to prepare a 10 mM solution for later use. The substrate was dissolved in fresh buffer, to which the kinase was added and mixed well. The DMSO solution containing the test compound was added to the above mixed reaction system by an acoustic technique (Echo 550). The concentrations of the compounds in reaction system were 10 μM, 3.33 μM, 1.11 μM, 0.370 μM, 0.123 μM, 41.2 nM, 13.7 nM, 4.57 nM, 1.52 nM, and 0.508 nM. After 15 minutes of incubation, the reaction was started by adding ^33P-ATP (activity: 0.01 μCi/μL; the corresponding concentration is listed in Table 1). Supplier's catalog number, lot number and concentration information in the reaction system for IRAK4 and its substrate are listed in Table 1. After 120 minutes of reaction at room temperature, the resulting solution was loaded on P81 ion exchange chromatography paper sheet (Whatman #3698-915). After repeated washing with 0.75% phosphoric acid solution, the radioactivity of the phosphorylated substrate residue on the paper sheet was measured. The kinase activity data are shown as a comparison of the kinase activity of the test compound and the kinase activity of the blank (DMSO only) and a curve was fitted using Prism4 software (GraphPad) to give IC50 values, with the experimental results shown in Table 2. [table]

Data set [7] concerns THP-1 cells. In words: TNF-α ELISA assay in LPS-stimulated THP-1 cells. The data set is classed as cell-based, human. The note with it: Homo sapiens, THP-1, 18 h, TNF-α in supernatant, 150 ng/mL LPS. As to the method: TNF-α ELISA Assay in THP-1 Cells THP-1 human acute unicellular leukemia cells were purchased from ATCC (Cat #TIB-202) and incubated in a 37° C., 5% CO2 incubator. The medium was RPMI1640 (Gibco, Cat #22400-105), the supplementary was 10% FBS (Gibco, Cat #10091148); 1% PenStrep (Gibco, Cat #15140); 0.05 mM 2-mercaptoethanol (Sigma, Cat #M6250). TNF-α content in the culture supernatant was measured by a TNF-α Elisa kit. TNF-α was produced by stimulation of THP-1 cells with 150 ng/mL LPS (Sigma, Cat #L6529). Normal THP-1 cells in logarithmic phase were inoculated in 96-well plates (Corning #3599) at a certain concentration (1×10^5/100 μL) and then incubated in an incubator. After two hours, 16.7 μL of test compound of different concentrations (8×final concentration) was added and the mixture was incubated. After one hour, 16.7 μL of 1200 ng/mL LPS was added and the mixture was incubated. After 18 hours, the culture was centrifuged and the supernatant was collected. The TNF-α content was measured by a TNF-α Elisa kit. Finally, the OD signals (OD450-OD570) were read on an envision plate reader. The OD450-OD570 signals were converted to percent inhibition. Inhibition %=(ZPE−sample)/(ZPE−HPE)×100. “HPE” represents the OD450-OD570 signal value of the control without LPS-stimulated cells, and “ZPE” represents the OD450-OD570 signal value of the control with LPS-stimulated cells. IC50 values for compounds were calculated by XLFit in the Excel. Y=Bottom+(Top−Bottom)/(1+(IC50/X)^HillSlope). Equation: […]

Data set [8] can be described thus: Pharmacokinetic study of oral and intravenous test compounds in SD rats. The data set is classed as in vivo. The note with it: rat, plasma, SD male rats; for Vd: read-out: Apparent volume of distribution Vdss; for AUC(0-t): read-out: Area under plasma concentration-time curve AUC0-last; for clearance: read-out: Clearance CL; for half-life: read-out: Half life T1/2 (converted); for bioavailability: read-out: Bioavailability F; for Cmax: read-out: Peak concentration Cmax; for Tmax: read-out: Time to peak Tmax. The method, then:
Pharmacokinetic Study of Oral and Intravenous Test Compounds in SD Rats The test compound was mixed with a solution containing 10% of methyl pyrrolidone, 10% of polyethylene glycol stearate and 80% of water. The mixture was vortexed and sonicated to prepare a 1.5 mg/mL clarified solution, which was then filtered through a microporous membrane for later use. SD male rats aged 7 to 10 weeks were selected and administered intravenously with a dose of the candidate compound at 3 mg/kg. The test compound was mixed with 0.5% aqueous methylcellulose solution. The mixture was vortexed and sonicated to prepare a 2 mg/mL suspension for later use. SD male rats aged 7 to 10 weeks were selected and orally administered with a dose of the candidate compound at 10 mg/kg. Whole blood was collected at certain time points, and plasma was separated. The drug concentration was measured by LC-MS/MS, and pharmacokinetic parameters were calculated using Phoenix WinNonlin software (Pharsight, USA).

For data set [9], the system named is LPS-induced TNF-α secretion. Put plainly: Pharmacodynamic study evaluating LPS-induced TNF-α secretion in SD rats. Format: in vivo. The conditions noted are these: for inhibitory effect on LPS-induced TNF-α secretion: LPS 1 mg/kg i.p.; for efficacy compared with dexamethasone DEX: DEX 0.5 mg/kg. The method, then:
Pharmacodynamic Study Evaluating […] (LPS)-Induced TNF-α Secretion in SD Rats SD rats were orally administered with a solvent, dexamethasone (DEX, 0.5 mg/kg) as positive control, and the test compound, and were intraperitoneally injected with LPS (1 mg/kg) 0.5 hours after the administration Animals were euthanized with CO2 2 hours after LPS injection. Cardiac blood was collected into EDTA-K2 vacutainers, and a part of the anticoagulated blood was centrifuged and the plasma was frozen at −80° C. Frozen plasma was thawed at room temperature and the concentration of TNF-α in the plasma was measured using ELISA kit. The experimental data were expressed using mean±SEM, and TNF-α levels were analyzed by One-way ANOVA. Significant differences were considered for p<0.05.

Sequence of human IRAK4 (Q9NWZ3 whole entry): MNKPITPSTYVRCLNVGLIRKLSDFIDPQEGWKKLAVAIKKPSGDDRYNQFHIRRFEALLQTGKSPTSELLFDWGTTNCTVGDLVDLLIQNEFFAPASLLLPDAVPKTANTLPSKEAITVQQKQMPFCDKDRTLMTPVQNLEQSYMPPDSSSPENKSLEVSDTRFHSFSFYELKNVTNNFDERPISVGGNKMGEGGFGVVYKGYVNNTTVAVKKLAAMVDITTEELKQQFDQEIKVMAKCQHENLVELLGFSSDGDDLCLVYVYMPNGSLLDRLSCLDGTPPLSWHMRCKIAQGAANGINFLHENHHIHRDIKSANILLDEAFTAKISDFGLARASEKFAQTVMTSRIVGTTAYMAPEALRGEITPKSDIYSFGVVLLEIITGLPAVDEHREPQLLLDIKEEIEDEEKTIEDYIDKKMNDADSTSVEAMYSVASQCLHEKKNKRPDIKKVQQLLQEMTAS

Regarding `c1cc2c(N[C@H]3CC[C@H](N4CCOCC4)CC3)nc(Nc3cnn(C4CCOCC4)c3)nc2s1` [WXR1, reference compound], the “Re1 h % (residue of test compound at 1 hour)” value (“Re1 h %” for short) came to 23.7% in data set [1]; 32.3% in [2]; 5.5% in data set [3]; 0.0% in data set [4]; 0.6% in [5].

In data set [6], `Cc1nsc2nc(Nc3cnn(C4CCOC4)c3)nc(N[C@H]3CC[C@H](N4CCOCC4)CC3)c12` (some centres unmarked) [WX007] displayed an IC50 of 5.7 nM. For the same molecule, in [7], the concentration for half-maximal inhibition (IC50) worked out at 417 nM. In addition, in data set [8] (Intravenous, 3 mg/kg), the Vd came to 3.3 L/kg, the AUC(0-t) stood at 1.33 µM·h, the clearance came out at 79 mL/min/kg and the half-life was 0.9 h. Besides, in data set [8] (Oral, 10 mg/kg), the AUC(0-t) was determined as 1.64 µM·h, the bioavailability came to 38%, the Cmax was 389 nM and the Tmax turned out to be 2 h.

As to `COC(=O)N1C2CC1CN([C@H]1CC[C@H](Nc3nc(Nc4cnn(C5CCOCC5)c4)nc4snc(C)c34)CC1)C2` [WX044], the concentration for half-maximal inhibition (IC50) in data set [6] amounted to 40.7 nM. Also, the “inhibitory effect on LPS-induced TNF-α secretion” value in data set [9] (FIG. 2, oral, 20 mpk) is “significant inhibitory effect”.

`Cc1nsc2nc(Nc3cnn(C4CCOCC4)c3)nc(N[C@H]3CC[C@H](N4CCOCC4)CC3)c12` [WX001]: in data set [1], the “Re1 h %” value came to 50.0%. In addition, the “Re1 h %” value in data set [2] was 76.6%. For the same molecule, it took 6.8 nM to reach half-maximal inhibition in data set [6] (IC50). Also, the “Re1 h %” value in [3] is 60.5%. The molecule also registered an IC50 in data set [7] of 177 nM. Also, the “Re1 h %” value in data set [4] was found to be 39.1%. In data set [8] (Intravenous, 3 mg/kg), the Vd was 4.6 L/kg, the AUC(0-t) turned out to be 1.75 µM·h, the clearance was 57 mL/min/kg and the half-life is 1.4 h. Further, in data set [8] (Oral, 10 mg/kg), the AUC(0-t) is 2.05 µM·h, the bioavailability came to 35%, the Cmax is 397 nM and the time of peak concentration (Tmax) was determined as 2.3 h. Moreover, the “Re1 h %” value in data set [5] turned out to be 3.2%. Moreover, in data set [9] (FIG. 1, oral, 30 mpk), the “efficacy compared with dexamethasone DEX” value is listed as “equivalent” and the “inhibitory effect on LPS-induced TNF-α secretion” value is listed as “significant inhibitory effect”. The “inhibitory effect compared with reference compounds WXR2, WXR3 and WXR4” value in data set [9] (FIG. 1, oral, same doses (30 mpk)) is listed as “significantly superior”. Also, in data set [9] (FIG. 2, oral, 20 mpk), the “inhibitory effect on LPS-induced TNF-α secretion” value is recorded as “significant inhibitory effect”.

Regarding `Cc1nsc2nc(Nc3cnn(C4COC4)c3)nc(N[C@H]3CC[C@H](N4CCOCC4)CC3)c12` [WX009], the half-maximal inhibitory concentration (IC50) in data set [6] came out at 21.3 nM. Moreover, in [7], the IC50 worked out at 649 nM. Moreover, in data set [8] (Intravenous, 3 mg/kg), the Vd was determined as 5.7 L/kg, the AUC(0-t) is 1.46 µM·h, the clearance was 73.3 mL/min/kg and the half-life was 1.8 h. For the same molecule, in data set [8] (Oral, 10 mg/kg), the AUC(0-t) came out at 2.69 µM·h, the bioavailability was 58%, the Cmax was found to be 540 nM and the Tmax was found to be 2.5 h.

`COC(=O)N1CCN([C@H]2CC[C@H](Nc3nc(Nc4cnn(C5CCOCC5)c4)nc4snc(C)c34)CC2)CC1` [WX026] showed a half-maximal inhibitory concentration (IC50) in [6] of 2 nM. Also, in data set [7], the IC50 was 156 nM. Moreover, in data set [8] (Intravenous, 3 mg/kg), the Vd came out at 4.5 L/kg, the AUC(0-t) amounted to 1.77 µM·h, the clearance is 50.6 mL/min/kg and the half-life was 2.2 h. In addition, in data set [8] (Oral, 10 mg/kg), the AUC(0-t) was 1.36 µM·h, the bioavailability came out at 23%, the Cmax was found to be 308 nM and the Tmax was found to be 1.5 h. In addition, in data set [9] (FIG. 2, oral, 20 mpk), the “efficacy compared with dexamethasone DEX” value was “equivalent” and the “inhibitory effect on LPS-induced TNF-α secretion” value is “significant inhibitory effect”.

For the molecule `COC(=O)N1C[C@H]2C[C@@H]1CN2[C@H]1CC[C@H](Nc2nc(Nc3cnn(C4CCOCC4)c3)nc3snc(C)c23)CC1` [WX047], the values for the 50% inhibitory concentration (IC50) in data set [6] and in [7] were 29.6 nM and 889 nM, respectively.

Regarding `Cc1nsc2nc(Nc3cnn(C4CCOCC4)c3)nc(NC3CCC(N4CCCNCC4)CC3)c12` (centres unmarked) [WX036], the IC50 amounted to 5.5 nM in [6] and 4160 nM in data set [7].

With `Cc1nsc2nc(Nc3cnn(C4CCOCC4)c3)nc(NC3CCC(N4CCCN(C)CC4)CC3)c12` (centres unmarked) [WX037], the figures for the IC50 in data set [6] and in data set [7] were 9.2 nM and 296 nM, respectively.

Consider `CC(C)c1nsc2nc(Nc3cnn(C4CCOCC4)c3)nc(N[C@H]3CC[C@H](N4CCOCC4)CC3)c12` [WX003], for which, in data set [6], half-maximal inhibition (IC50) was put at 2.9 nM. The molecule further returned a half-inhibitory concentration (IC50) in data set [7] of 329 nM. In addition, in data set [8] (Intravenous, 3 mg/kg), the Vd was found to be 4.8 L/kg, the AUC(0-t) is 1.33 µM·h, the clearance worked out at 71.4 mL/min/kg and the half-life was 1 h. Further, in data set [8] (Oral, 10 mg/kg), the AUC(0-t) is 2.01 µM·h, the bioavailability worked out at 48%, the Cmax stood at 523 nM and the time to peak (Tmax) worked out at 0.8 h.

A word on the IC50: it is the concentration that inhibits the measured activity by half. One may read the bioavailability as dose-corrected exposure relative to a reference, in per cent. As usually defined, the Tmax is the time at which the peak concentration occurs.
